Laboratory results: publication PMC6858927 (Investigational new drugs, 2019)
Like-named read-outs stand apart in the source and are kept apart here.

[1] = Cohort A: 200mg, cytarabine, Daunorubicin (n=5), Total
[2] = Cohort A: 200mg, cytarabine, Daunorubicin (n=5), grade 1&2
[3] = Cohort A: 200mg, cytarabine, Daunorubicin (n=5), grade 3+
[4] = Cohort B Dose 2: 400mg, Decitabine (n=2), Total
[5] = Cohort B Dose 2: 400mg, Decitabine (n=2), grade 1&2
[6] = Cohort B Dose 2: 400mg, Decitabine (n=2), grade 3+

## C1=C/COCc2cc(ccc2OCCN2CCCC2)Nc2nccc(n2)-c2cccc(c2)COC/1 [Pacritinib, 11-(2-pyrrolidin-1-yl-ethoxy)-14,19-dioxa-5,7,26-triaza-tetracyclo[19.3.1.1(2,6). 1(8,12)]heptacosa-1(25),2(26),3,5,8,10,12(27),16,21,23-decaene]
[1]
  HYPOXIA, patients (%): 2 (40)
  LUNG INFECTION, patients (%): 1 (20)
  LYMPHOCYTE COUNT DECREASED, patients (%): 3 (60)
  MUCOSITIS ORAL, patients (%): 2 (40)
  NAUSEA, patients (%): 3 (60)
  NEUTROPHIL COUNT DECREASED, patients (%): 2 (40)
  PLATELET COUNT DECREASED, patients (%): 5 (100)
  PLEURAL EFFUSION, patients (%): 1 (20)
  PRURITUS, patients (%): 4 (80)
  RASH MACULO-PAPULAR, patients (%): 2 (40)
  RASH, patients (%): 2 (40)
  RESPIRATORY FAILURE, patients (%): 2 (40)
  VOMITING, patients (%): 0
  WHITE BLOOD CELL DECREASED, patients (%): 4 (80)
[2]
  ACTIVATED PARTIAL THROMBOPLASTIN TIME PROLONGED, patients (%): 1 (20)
  ANEMIA, patients (%): 0
  ANOREXIA, patients (%): 0
  CONSTIPATION, patients (%): 0
  DIARRHEA, patients (%): 3 (60)
  DYSPNEA, patients (%): 1 (20)
  EDEMA LIMBS, patients (%): 1 (20)
  ELECTROCARDIOGRAM QT CORRECTED INTERVAL PROLONGED, patients (%): 4 (80)
  FATIGUE, patients (%): 3 (60)
  FEBRILE NEUTROPENIA, patients (%): 0
  HYPERGLYCEMIA, patients (%): 1 (20)
  HYPERTENSION, patients (%): 1 (20)
  HYPOALBUMINEMIA, patients (%): 2 (40)
  HYPOKALEMIA, patients (%): 1 (20)
  HYPOPHOSPHATEMIA, patients (%): 0
  HYPOXIA, patients (%): 0
  LUNG INFECTION, patients (%): 0
  LYMPHOCYTE COUNT DECREASED, patients (%): 1 (20)
  MUCOSITIS ORAL, patients (%): 2 (40)
  NAUSEA, patients (%): 3 (60)
  NEUTROPHIL COUNT DECREASED, patients (%): 0
  PLATELET COUNT DECREASED, patients (%): 0
  PLEURAL EFFUSION, patients (%): 1 (20)
  PRURITUS, patients (%): 4 (80)
  RASH MACULO-PAPULAR, patients (%): 1 (20)
  RASH, patients (%): 2 (40)
  RESPIRATORY FAILURE, patients (%): 0
  VOMITING, patients (%): 0
  WHITE BLOOD CELL DECREASED, patients (%): 0
Cohort A: 200mg, cytarabine, Daunorubicin (n=5), grade 1&2, listed as pacritinib
  ELECTROCARDIOGRAM QT CORRECTED INTERVAL PROLONGED, patients (%): Four
[3]
  ACTIVATED PARTIAL THROMBOPLASTIN TIME PROLONGED, patients (%): 0
  ANEMIA, patients (%): 3 (60)
  ANOREXIA, patients (%): 0
  CONSTIPATION, patients (%): 0
  DIARRHEA, patients (%): 0
  DYSPNEA, patients (%): 0
  EDEMA LIMBS, patients (%): 0
  ELECTROCARDIOGRAM QT CORRECTED INTERVAL PROLONGED, patients (%): 0
  FATIGUE, patients (%): 0
  FEBRILE NEUTROPENIA, patients (%): 3 (60)
  HYPERGLYCEMIA, patients (%): 0
  HYPERTENSION, patients (%): 1 (20)
  HYPOALBUMINEMIA, patients (%): 0
  HYPOKALEMIA, patients (%): 0
  HYPOPHOSPHATEMIA, patients (%): 1 (20)
  HYPOXIA, patients (%): 2 (40)
  LUNG INFECTION, patients (%): 1 (20)
  LYMPHOCYTE COUNT DECREASED, patients (%): 2 (40)
  MUCOSITIS ORAL, patients (%): 0
  NAUSEA, patients (%): 0
  NEUTROPHIL COUNT DECREASED, patients (%): 2 (40)
  PLATELET COUNT DECREASED, patients (%): 5 (100)
  PLEURAL EFFUSION, patients (%): 0
  PRURITUS, patients (%): 0
  RASH MACULO-PAPULAR, patients (%): 1 (20)
  RASH, patients (%): 0
  RESPIRATORY FAILURE, patients (%): 2 (40)
  VOMITING, patients (%): 0
  WHITE BLOOD CELL DECREASED, patients (%): 4 (80)
[4]
  ACTIVATED PARTIAL THROMBOPLASTIN TIME PROLONGED, patients (%): 0
  ANEMIA, patients (%): 2 (100)
  ANOREXIA, patients (%): 0
  CONSTIPATION, patients (%): 1 (50)
  DIARRHEA, patients (%): 0
  DYSPNEA, patients (%): 1 (50)
  EDEMA LIMBS, patients (%): 0
  ELECTROCARDIOGRAM QT CORRECTED INTERVAL PROLONGED, patients (%): 0
  FATIGUE, patients (%): 0
  FEBRILE NEUTROPENIA, patients (%): 0
  HYPERGLYCEMIA, patients (%): 1 (50)
  HYPERTENSION, patients (%): 1 (50)
  HYPOALBUMINEMIA, patients (%): 0
  HYPOKALEMIA, patients (%): 1 (50)
  HYPOPHOSPHATEMIA, patients (%): 0
  HYPOXIA, patients (%): 0
  LUNG INFECTION, patients (%): 0
  LYMPHOCYTE COUNT DECREASED, patients (%): 1 (50)
  MUCOSITIS ORAL, patients (%): 0
  NAUSEA, patients (%): 1 (50)
  NEUTROPHIL COUNT DECREASED, patients (%): 1 (50)
  PLATELET COUNT DECREASED, patients (%): 1 (50)
  PLEURAL EFFUSION, patients (%): 0
  PRURITUS, patients (%): 0
  RASH MACULO-PAPULAR, patients (%): 0
  RASH, patients (%): 0
  RESPIRATORY FAILURE, patients (%): 0
  VOMITING, patients (%): 1 (50)
  WHITE BLOOD CELL DECREASED, patients (%): 1 (50)
[5]
  ACTIVATED PARTIAL THROMBOPLASTIN TIME PROLONGED, patients (%): 0
  ANEMIA, patients (%): 1 (50)
  ANOREXIA, patients (%): 0
  CONSTIPATION, patients (%): 1 (50)
  DIARRHEA, patients (%): 0
  DYSPNEA, patients (%): 1 (50)
  EDEMA LIMBS, patients (%): 0
  ELECTROCARDIOGRAM QT CORRECTED INTERVAL PROLONGED, patients (%): 0
  FATIGUE, patients (%): 0
  FEBRILE NEUTROPENIA, patients (%): 0
  HYPERGLYCEMIA, patients (%): 1 (50)
  HYPERTENSION, patients (%): 1 (50)
  HYPOALBUMINEMIA, patients (%): 0
  HYPOKALEMIA, patients (%): 0
  HYPOPHOSPHATEMIA, patients (%): 0
  HYPOXIA, patients (%): 0
  LUNG INFECTION, patients (%): 0
  LYMPHOCYTE COUNT DECREASED, patients (%): 0
  MUCOSITIS ORAL, patients (%): 0
  NAUSEA, patients (%): 0
  NEUTROPHIL COUNT DECREASED, patients (%): 0
  PLATELET COUNT DECREASED, patients (%): 0
  PLEURAL EFFUSION, patients (%): 0
  PRURITUS, patients (%): 0
  RASH MACULO-PAPULAR, patients (%): 0
  RASH, patients (%): 0
  RESPIRATORY FAILURE, patients (%): 0
  VOMITING, patients (%): 1 (50)
  WHITE BLOOD CELL DECREASED, patients (%): 0
[6]
  ACTIVATED PARTIAL THROMBOPLASTIN TIME PROLONGED, patients (%): 0
  ANEMIA, patients (%): 1 (50)
  ANOREXIA, patients (%): 0
  CONSTIPATION, patients (%): 0
  DIARRHEA, patients (%): 0
  DYSPNEA, patients (%): 0
  EDEMA LIMBS, patients (%): 0
  ELECTROCARDIOGRAM QT CORRECTED INTERVAL PROLONGED, patients (%): 0
  FATIGUE, patients (%): 0
  FEBRILE NEUTROPENIA, patients (%): 0
  HYPERGLYCEMIA, patients (%): 0
